The text below walks through data of patent US20170363618A1, “AGE-MODIFIED CELLS AND METHODS FOR MAKING AGE-MODIFIED CELLS” (MEMORIAL SLOAN-KETTERING CANCER CENTER, priority 2015, published 2017).

For data set [1], the system named is motor neurons (MNs). The settings on record: ALS motor neuron screen, 72 hr with compound; cited from earlier work.
Data set [2] concerns young (348) and old (204) fibroblasts. Description: Immunofluorescence detection of aging marker expression in fibroblasts after three-day compound treatment. Type of data set: cell-based, human. The settings on record: for shape of youthful marker expression over the three doses (C1-C3): in some cases, highest dose gave lower expression than middle or lower dose. As to the method:
Cell samples were all supplied by Coriell Cell Repositories. The cell line from a young individual (<20 years) was GM03348 (“348”). The cell line from an old individual (>65 years) was GM04204 (“204”).
Cells were cultured in human fibroblast medium made from 95% Gibco's Minimum Essential Medium, 4.5% fetal bovine serum, and 0.5% Penicillin/Streptomycin. Cells were plated on 15 cm plates and passaged every 2-3 days as necessary, and fed every other day. For experimentation, cells were plated in 96 well plates or 6 well plates. Before fixation, cells were treated with a preextraction buffer containing 20 mM Hepes pH 7.9, 0.5% Triton X-100, 50 mM NaCl, and 300 mM sucrose for 7 minutes at 4° C. to reduce the high levels of background seen in initial stainings. Cells were then fixed with 4% paraformaldehyde for 15 minutes at room temperature.
After fixing, cells were incubated in Permeablization Buffer containing 0.3% Triton X-100 and 1% BSA in PBS for 35 minutes at room temperature. Cells were then incubated with primary antibodies to markers (1:1000 in PBS) at 4° C. overnight. Following incubation, cells were washed 3× with PBS, then incubated with secondary antibodies (1:500 in PBS) for 30 minutes at room temperature, protected from light. Following this incubation, cells were washed 1× with PBS, then incubated with DAPI 1:1000 in PBS for 7 minutes at room temperature, protected from light, then washed 2× with PBS. Stainings were imaged using either using the Hamamatsu Olympus IX81 microscope, or the PerkinElmer Operetta High Content Imaging System. The expression level of each marker was determined relative to the untreated control on the same treatment plate (FIGS. 11, 13, 15 and 16), or to the average of the untreated controls across all treatment plates for the same marker (FIGS. 12 and 14).
Imaging of immunofluorescence was done using the PerkinElmer Operetta High Content Imaging System. Each well had several (>15) random spots in each plate imaged, and staining intensity quantification was done using the Operetta Harmony software. Analysis is based on mean intensity levels of each staining within a single well compared to mean intensity levels in other wells.
(§1) Cells were then treated with each of the six compounds for three days. Each compound had both a young and old untreated control, as well as the three pre-determined concentrations for both young and old cells. In addition, a six-well plate was set up for Decitabine, Zebularine, Chaetocin and SW155246, with an additional 3 cm plate for use as untreated controls for quantification of global levels of DNA methylation. After treatment, cells were stained with immunofluorescence for HP1α, H1, γH2Ax, Lamin B1, H3K9me3 and […].

Data set [3] shares this test system. Description: 10-day culture with compounds, cell survival measured by cell number counts. Type of data set: cell-based. The method, then: Cell numbers are calculated as a mean of 8 wells.
Control cultures of young cells were still healthy after 10 days, and the compounds all had effects on viability (FIG. 15).

The test system of data set [4] is global DNA levels of 5-mC methylation. The data set is described as follows: Global 5-mC DNA methylation quantification (colorimetric Methylflash kit) in treated fibroblasts. The note with it: 3 days of treatment, young and old fibroblasts, three concentrations. Type of data set: cell-based, human. As to the method:
Genomic DNA was extracted from treated cell samples using the Quick-gDNA MicroPrep kit (Zymo). Global levels of DNA methylation were measured using the colorimetric Methylflash Methylated DNA quantification kit (Epigentek) according to manufacturer instructions, and read using the PerkinElmer ENSPIRE plate reader. gDNA sample size was 50 ng. Analysis was performed according to manufacturer instructions.
as §1

The mark [5] stands for this setting: 3-day treatment, primary fibroblasts from young and old individuals, immunofluorescence vs untreated control.
Where [6] appears, read: 3-day treatment, young and old fibroblasts.

Molecules are shown by their SMILES. Entries after “also recorded” stand apart in the source; their conditions may differ. Where two headings read alike, the source gives them in different places.

As to `O=C1Cc2c([nH]c3ccc(Br)cc23)-c2ccccc2N1` [kenpaullone], in data set [1], the “survival of motor neurons after trophic factor withdrawal” value is “impressive ability to prolong the healthy survival of MNs”.

For the molecule `Oc1ccc(C=Cc2cc(O)cc(O)c2)cc1` [Resveratrol], the “effect on markers in young cells compared to old cells” value in data set [2] (3-day culture) is listed as “greater in young cells compared to old cells; also recorded: more of an effect on young cells than on old cells”. Besides, the “levels of all markers (H1, HP1α, H3K9me3, H3K27me3, LaminB1, yH2Ax)” value in data set [2] (3-day culture, young (348) and old (204) fibroblasts, normalized to untreated, FIG. 11) was “increased”. Besides, the “levels of the five markers of a younger state (H1, HP1α, H3K9me3, H3K27me3, LaminB1)” value in data set [2] (3-day culture, young and old fibroblasts) is “all increased”. In data set [2] (setting [5]), the “levels of HP1α (heterochromatin marker, marker of young cellular age)” value is listed as “increasing” and the “levels of histone protein H1 (marker of young cellular age)” value was “increasing”. Moreover, in data set [3], the “toxicity / effect on viability after prolonged culture (cell number)” value (“toxicity / effect on viability” for short) was “Toxicity was also seen”.

With `Nc1ncn([C@H]2C[C@H](O)[C@@H](CO)O2)c(=O)n1` [Decitabine, 5-aza-2-deoxycytidine], in data set [3], the “toxicity / effect on viability” value is listed as “Much less toxicity”.

Turning to `CO[C@H]1C[C@@H]2CC[C@@H](C)[C@@](O)(O2)C(=O)C(=O)N2CCCC[C@H]2C(=O)O[C@H]([C@H](C)C[C@@H]2CC[C@@H](O)[C@H](OC)C2)CC(=O)[C@H](C)/C=C(\C)[C@@H](O)[C@@H](OC)C(=O)[C@H](C)C[C@H](C)/C=C/C=C/C=C/1C` [Rapamycin], in data set [3], the “toxicity / effect on viability” value is “Toxicity was also seen”.

Regarding `CN1C(=O)[C@@]23C[C@]4([C@]56C[C@@]78SS[C@@](CO)(C(=O)N7[C@H]5Nc5ccccc56)N(C)C8=O)c5ccccc5N[C@@H]4N2C(=O)[C@]1(CO)SS3` [Chaetocin, (3S,3'S,5aR,5aR,10bR,10′bR,11aS,11′aS)-2,2′,3,3′,5a,5′a,6,6′-octahydro-3,3′-bis(hydroxymethyl)-2,2′-dimethyl-[10b,10′b(11H,11′H)-bi3,11a-epidithio-11aH-pyrazino[1′,2′:1,5]pyrrolo[2,3-b]indole]-1,1′,4,4′-tetrone], the “toxicity / effect on viability” value in data set [3] (10-day culture, young cells (control cultures still healthy)) is given as “highest toxicity”.

For the molecule `O=c1ncccn1[C@@H]1O[C@H](CO)[C@@H](O)[C@H]1O` [Zebularine, 1-(β-D-Ribofuranosyl)-2(1H)-pyrimidinone], the “global levels of 5-mC DNA methylation” value in data set [4] is recorded as “decrease”. In addition, the “shape of youthful marker expression over the three doses (C1-C3)” value in data set [2] (3-day treatment) is “inverted U shaped curve”. In data set [2] (setting [6]), the “expression of the six markers tested” value is listed as “modulated”. Also, in data set [3], the “toxicity / effect on viability” value is on record as “Much less toxicity”.

As to `O=[N+]([O-])c1cc(S(=O)(=O)Nc2ccc(O)c3ccccc23)ccc1Cl` [SW155246, 4-Chloro-N-(4-hydroxy-1-naphthalenyl)-3-nitro-benzenesulfonamide], the “global levels of 5-mC DNA methylation” value in data set [4] is “increased with both the highest and lowest concentrations, but decreased slightly with the middle concentration; also recorded: did not consistently go down”. The “shape of youthful marker expression over the three doses (C1-C3)” value in data set [2] (3-day treatment) is recorded as “inverted U shaped curve”. Also, in data set [2] (setting [5]), the “levels of HP1α (heterochromatin marker, marker of young cellular age)” value is recorded as “decreasing”; the “levels of histone protein H1 (marker of young cellular age)” value is given as “decreasing”; the “levels of γH2AX (DNA damage marker, marker of old cellular age)” value is “increasing”. For the same molecule, the “expression of the six markers tested” value in data set [2] (setting [6]) is “modulated”. Moreover, the “toxicity / effect on viability” value in data set [3] is reported as “Much less toxicity”.
